Test results taken from patent US10450260B2, “NO- and H2S-releasing compounds” (RESEARCH FOUNDATION OF THE CITY UNIVERSITY OF NEW YORK, priority 2011, dated 2019).
Like-named read-outs stand apart in the source and are kept apart here.

Columns and labels:
[1] = tested on: Jurkat T cell human leukemia; assay: MTT cell growth inhibition, Jurkat; type: cell-based; conditions: for IC50: Homo sapiens, Jurkat; for Ratio NSAID/NOSH-NSAID, Jurkat: fold-enhancement in potency over the parent compound
Procedure: All cells lines were grown as monolayers except for the Jurkats which were grown in suspension. […] All media were supplemented with 10% fetal calf serum (Invitrogen, Carlsbad, Calif.) penicillin (50 U/ml), and streptomycin (50 μg/ml) (Invitrogen, Carlsbad, Calif.). Cells were seeded on culture dishes at a density of 25×10^3 cells/cm^2 and incubated at 37° C. in 5% CO2 and 90% relative humidity. Single cell suspensions were obtained by trypsinization (0.05% trypsin/EDTA), and cells were counted using a hemocytometer. Viability was determined by the trypan blue dye exclusion method.
Cell growth inhibitory effect of NOSH compounds were measured using a colorimetric MTT assay kit (Roche, Indianapolis, Ind.). Cancer cells were plated in 96-well plates at a density of 50,000 cells/well. The cells were incubated for 24 h with different concentrations of NOSH compounds. After the indicated time, 10 μl of MTT dye (3-[4,5-dimethylthiazol-2-yl]-2,5-diphenyl tetrazolium bromide, 5 mg/ml in phosphate buffered saline), was added to each well, and the plates were incubated for 2 hours at 37° C. Then, the media was aspirated, and add 100 μl of the solubilization solution (10% SDS in 0.01 M HCl) was added to each well to solubilize the formant crystals. The absorbance of the plates was measured on an ELISA reader at a wavelength of 570 nm. Each sample was performed in triplicate, and the entire experiment was repeated three times.
All media were supplemented with 10% fetal calf serum (Invitrogen, Carlsbad, Calif.) penicillin (50 U/ml), and streptomycin (50 μg/ml) (Invitrogen, Carlsbad, Calif.). Cells were seeded on culture dishes at a density of 25×10^3 cells/cm^2 and incubated at 37° C. in 5% CO2 and 90% relative humidity. Single cell suspensions were obtained by trypsinization (0.05% trypsin/EDTA), and cells were counted using a hemacytometer. The final DMSO concentration was adjusted in all media to 1%. Viability was determined by the trypan blue dye exclusion method.
Cell growth inhibitory effect of all NOSH-NSAIDs was measured using a colorimetric MTT assay kit (Roche, Indianapolis, Ind.). Cancer cells were plated in 96-well plates at a density of 30,000-50,000 cells/well depending on cell type. The cells were incubated for 24 hours with different concentrations of NOSH-NSAIDs. After the indicated time, 10 μL of MTT dye (3-[4,5-dimethylthiazol-2-yl]-2,5-diphenyl tetrazolium bromide, 5 mg/mL in phosphate buffered saline), was added to each well, and the plates were incubated for 2 hours at 37° C. Then, the media was aspirated, and 100 μL of the solubilization solution (10% SDS in 0.01 M HCl) was added to each well to solubilize the formant crystals. The absorbance of the plates was measured on a spectrophotometric plate reader at a wavelength of 570 nm. Each experiment was performed in triplicate, and the entire experiment was repeated three times.

ovine COX-2 = target: T1, ovine COX-2 (Ovis aries, UniProt P79208); assay: COX-2 enzyme activity, colorimetric inhibitor screening kit; type: biochemical; conditions: for inhibition at 3000 µM: read-out: COX-2-% Inhibition, 3 mM (Table 8)
T1 construct: purchased Cayman Chemicals (Ann Arbor, Mich.)
T1 sequence (P79208 17-603): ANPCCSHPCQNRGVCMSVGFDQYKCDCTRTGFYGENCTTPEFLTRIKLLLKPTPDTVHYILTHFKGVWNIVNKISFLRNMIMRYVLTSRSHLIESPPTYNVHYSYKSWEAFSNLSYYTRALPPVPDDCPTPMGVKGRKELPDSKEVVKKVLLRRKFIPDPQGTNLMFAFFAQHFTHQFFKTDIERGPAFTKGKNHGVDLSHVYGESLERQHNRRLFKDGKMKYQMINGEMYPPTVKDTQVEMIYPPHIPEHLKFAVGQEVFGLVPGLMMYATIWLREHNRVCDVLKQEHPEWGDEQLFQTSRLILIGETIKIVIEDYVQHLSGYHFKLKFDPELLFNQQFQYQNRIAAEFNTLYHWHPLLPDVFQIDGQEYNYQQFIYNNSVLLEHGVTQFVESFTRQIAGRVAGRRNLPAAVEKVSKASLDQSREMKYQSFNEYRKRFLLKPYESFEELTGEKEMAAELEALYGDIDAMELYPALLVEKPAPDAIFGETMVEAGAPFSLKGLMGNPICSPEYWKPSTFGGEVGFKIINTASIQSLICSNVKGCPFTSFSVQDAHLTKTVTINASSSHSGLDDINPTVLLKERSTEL

## CC(C(=O)Oc1ccc(-c2cc(=S)ss2)cc1)c1ccc2cc(OC(=O)CCCO[N+](=O)[O-])ccc2c1 (stereo not drawn) [NOSH-7, 6-(1-oxo-1-(4-(3-thioxo-3H-1,2-dithiol-5-yl)phenoxy)propan-2-yl)naphthalen-2-yl 4-(nitrooxy)butanoate]
[1]; 24 hours (Table 7)
  IC50: 100 nM
[1]
  Ratio NSAID/NOSH-NSAID, Jurkat: 25,500
Ovine COX-2; 80 nM (Table 8)
  inhibition at 0.08 µM: 18.8%
Ovine COX-2; 80 nM (Table 8), listed as NOSH-NAPROXEN, 0.08 µM
  COX-2-% Inhibition: 15.8%
Ovine COX-2; 160 nM (Table 8)
  inhibition at 0.16 µM: 11%

## O=C(CCCO[N+](=O)[O-])Oc1ccccc1C(=O)Oc1ccc(-c2cc(=S)ss2)cc1 [NOSH-1, 4-(3-thioxo-3H-1,2-dithiol-5-yl)phenyl 2-((4-(nitrooxy)butanoyl)oxy)benzoate]
[1]; 24 hours
  IC50: 100 ± 8 nM
Ovine COX-2; 25 nM (Table 6)
  inhibition at 0.025 µM: 5.4 ± 0.7%
Ovine COX-2; 50 nM (Table 6)
  inhibition at 0.05 µM: 14.5 ± 1%
Ovine COX-2; 50 nM (Table 8)
  inhibition at 0.05 µM: 23.3%
Ovine COX-2; 50 nM (Table 8), listed as NOSH-ASA, 0.05 µM
  COX-2-% Inhibition: 20.9%
Ovine COX-2; 100 nM (Table 6)
  inhibition at 0.1 µM: 27.2 ± 0.7%
Ovine COX-2; 100 nM (Table 8)
  inhibition at 0.1 µM: 29.1%

## O=C(CCCC[C@@H]1CCSS1)Oc1ccccc1C(=O)OCCCCO[N+](=O)[O-] [NOSH-4, (R)-4-(nitrooxy)butyl 2-((5-(1,2-dithiolan-3-yl)pentanoyl)oxy)benzoate]
[1]; 24 hours
  IC50: 240 ± 11 nM

## CC1=C(CC(=O)Oc2ccc(OC(=O)CCCO[N+](=O)[O-])c(C(=O)Oc3ccc(-c4cc(=S)ss4)cc3)c2)c2cc(F)ccc2/C1=C/c1ccc([S+](C)[O-])cc1 (stereo not drawn) [NOSH-8, (E)-4-(3-thioxo-3H-1,2-dithiol-5-yl)phenyl 5-(2-(5-fluoro-2-methyl-1-(4-(methylsulfinyl)benzylidene)-1H-inden-3-yl)acetoxy)-2-((4-(nitrooxy)butanoyl)oxy)benzoate]
[1]; 24 hours (Table 7)
  IC50: 270 nM
[1]
  Ratio NSAID/NOSH-NSAID, Jurkat: 2,588
Ovine COX-2; 89 nM (Table 8)
  inhibition at 0.089 µM: 13.6%
Ovine COX-2; 89 nM (Table 8), listed as NOSH-SULINDAC, 0.089 µM
  COX-2-% Inhibition: 12.3%

## O=C(CCC(=O)Oc1ccccc1C(=O)Oc1ccc(-c2cc(=S)ss2)cc1)OCCCCO[N+](=O)[O-] [NOSH-2, 4-(nitrooxy)butyl (2-((4-(3-thioxo-3H-1,2-dithiol-5-yl)phenoxy)carbonyl)phenyl) succinate]
[1]; 24 hours
  IC50: 90 ± 5 nM

## CC(=O)Oc1ccccc1C(=O)O [ASA, aspirin, reference compound]
Ovine COX-2; 1 mM, 15 min at 4° C. (Table 8)
  COX-2-% Inhibition: 70.2%
Ovine COX-2; read-out: COX-2 % Inhibition, 1 mM (Table 6)
  inhibition at 1000 µM: 50.6 ± 1.1%
Ovine COX-2; read-out: COX-2-% Inhibition, 1 mM, 15 min at 4° C. (Table 8)
  inhibition at 1000 µM: 68.4%
Ovine COX-2
  inhibition at 3000 µM: 74.6%

## COc1ccc2cc([C@H](C)C(=O)O)ccc2c1 [naproxen, reference compound]
Ovine COX-2; 3 mM (Table 8)
  COX-2-% Inhibition: 70.2%
Ovine COX-2
  inhibition at 3000 µM: 68.6%
Ovine COX-2; read-out: COX-2-% Inhibition, 6 mM (Table 8)
  inhibition at 6000 µM: 74.6%

## NC(=S)c1ccc(OC(=O)c2ccccc2OC(=O)CCCO[N+](=O)[O-])cc1 [NOSH-3, 4-carbamothioylphenyl 2-((4-(nitrooxy)butanoyl)-oxy)benzoate]
[1]; 24 hours
  IC50: 7000 ± 321 nM

## CC1=C(CC(=O)O)c2cc(F)ccc2/C1=C\c1ccc([S+](C)[O-])cc1 (stereo not drawn) [sulindac, reference compound]
[1]; 24 hours (Table 7)
  IC50: 699000 nM
Ovine COX-2; 800 μM (Table 8)
  inhibition at 800 µM: 66.8%
Ovine COX-2; 800 μM (Table 8), 800 µM
  COX-2-% Inhibition: 68.5%
Ovine COX-2; 1600 μM (Table 8)
  inhibition at 1600 µM: 71.1%
